Assay: xn = mol fraction of the nth substance listed

CCCCCCCCN(CCCCCCCC)CCCCCCCC + CCCCCC
Conditions	viscosity [mPa·s]
298 K, 101.3 kPa, x1 = 0.00584	0.331

CCCCOCCO + CCCCCC
viscosity [mPa·s], 101 kPa
Conditions	303.15 K	313.15 K
x1 = 0.0327	0.292	0.258
x1 = 0.1014	0.354	0.31
x1 = 0.1974	0.456	0.396
x1 = 0.2974	0.587	0.506
x1 = 0.395	0.741	0.634
x1 = 0.4968	0.93	0.787
x1 = 0.5957	1.148	0.956
x1 = 0.7323	1.507	1.23
x1 = 0.8316	1.793	1.458
x1 = 0.8992	2.025	1.634
x1 = 0.9658	2.271	1.79

CCOC(=O)CCl + CCCCCC
viscosity [mPa·s], 101.33 kPa
Conditions	x1 = 0.0977	x1 = 0.2029	x1 = 0.3028	x1 = 0.4001	x1 = 0.4982	x1 = 0.6039	x1 = 0.7027	x1 = 0.8032	x1 = 0.9022
298.15 K	0.342	0.375	0.416	0.465	0.524	0.602	0.683	0.787	0.923
303.15 K	0.326	0.357	0.396	0.441	0.495	0.566	0.641	0.739	0.861
308.15 K	0.309	0.339	0.377	0.417	0.466	0.53	0.6	0.69	0.8

COC(=O)c1ccccc1 + CCCCCC
101 kPa
Conditions	viscosity [mPa·s]
298.15 K, x2 = 0.0743	1.549
298.15 K, x2 = 0.1072	1.437
298.15 K, x2 = 0.1557	1.292
298.15 K, x2 = 0.2038	1.165
298.15 K, x2 = 0.2487	1.059
298.15 K, x2 = 0.306	0.942
298.15 K, x2 = 0.4327	0.739
298.15 K, x2 = 0.5799	0.573
298.15 K, x2 = 0.6269	0.531
298.15 K, x2 = 0.7731	0.43
298.15 K, x2 = 0.8687	0.379
298.15 K, x2 = 0.9288	0.356
308.15 K, x2 = 0.0711	1.287
308.15 K, x2 = 0.1099	1.188
308.15 K, x2 = 0.156	1.08
308.15 K, x2 = 0.1971	0.989
308.15 K, x2 = 0.2501	0.894
308.15 K, x2 = 0.2967	0.816
308.15 K, x2 = 0.3441	0.748
308.15 K, x2 = 0.3888	0.69
308.15 K, x2 = 0.4383	0.633
308.15 K, x2 = 0.4943	0.577
308.15 K, x2 = 0.5292	0.546
308.15 K, x2 = 0.5797	0.504
308.15 K, x2 = 0.6228	0.475
308.15 K, x2 = 0.6692	0.446
308.15 K, x2 = 0.7253	0.412
308.15 K, x2 = 0.767	0.392
308.15 K, x2 = 0.8162	0.37
308.15 K, x2 = 0.8731	0.347
308.15 K, x2 = 0.9205	0.329
318.15 K, x2 = 0.08	1.087
318.15 K, x2 = 0.0873	1.072
318.15 K, x2 = 0.1249	1
318.15 K, x2 = 0.1776	0.906
318.15 K, x2 = 0.2189	0.839
318.15 K, x2 = 0.2731	0.757
318.15 K, x2 = 0.3197	0.696
318.15 K, x2 = 0.3711	0.634
318.15 K, x2 = 0.4155	0.586
318.15 K, x2 = 0.4667	0.537
318.15 K, x2 = 0.5132	0.499
318.15 K, x2 = 0.5535	0.471
318.15 K, x2 = 0.6116	0.436
318.15 K, x2 = 0.6634	0.41
318.15 K, x2 = 0.7082	0.388
318.15 K, x2 = 0.7636	0.365
318.15 K, x2 = 0.8087	0.35
318.15 K, x2 = 0.8631	0.333
318.15 K, x2 = 0.9098	0.317

Reference: the CheMixHub viscosity set
